Source: US20260042731A1, “(2,4-DICHLOROPHENOXY)ACETIC ACID ANALOGS” (CORTEVA AGRISCIENCE LLC, priority 2022, published 2026)
Where two headings read alike, the source gives them in different places.

Tests used:
[1] = test system: Amaranthus rudis (AMATA), tall water hemp; assay: Postemergence herbicide evaluation, growth of Amaranthus rudis (AMATA); format: in vivo; settings: Amaranthus tuberculatus, post-emergence, read-out: Ave. AMATA, percent reduction in plant size relative to the untreated control; for pest or weed control at 280 g/ha: 280 g ae/ha; for pest or weed control at 560 g/ha: 560 g ae/ha
[2] = test system: Ambrosia artemisiifolia (AMBEL), common ragweed; assay: Postemergence herbicide evaluation, growth of Ambrosia artemisiifolia (AMBEL); format: in vivo; settings: Ambrosia artemisiifolia, post-emergence, read-out: AVE. AMBEL, percent reduction in plant size relative to the untreated control; for pest or weed control at 280 g/ha: 280 g ae/ha; for pest or weed control at 560 g/ha: 560 g ae/ha
[3] = test system: Abutilon theophrasti (ABUTH), velvetleaf; assay: Postemergence herbicide evaluation, growth of Abutilon theophrasti (ABUTH); format: in vivo; settings: Abutilon theophrasti, post-emergence, read-out: AVE. ABUTH, percent reduction in plant size relative to the untreated control; for pest or weed control at 280 g/ha: 280 g ae/ha; for pest or weed control at 560 g/ha: 560 g ae/ha
[4] = test system: Chenopodium album (CHEAL), common lambsquarters; assay: Postemergence herbicide evaluation, growth of Chenopodium album (CHEAL); format: in vivo; settings: Chenopodium album, post-emergence, read-out: Ave. CHEAL, percent reduction in plant size relative to the untreated control; for pest or weed control at 280 g/ha: 280 g ae/ha; for pest or weed control at 560 g/ha: 560 g ae/ha
[5] = test system: glyphosate resistant Conyza canadensis (L.) (ERICA), horseweed; assay: Postemergence herbicide evaluation, growth of Conyza canadensis (ERICA); format: in vivo; settings: Erigeron canadensis, post-emergence, read-out: Ave. ERICA, percent reduction in plant size relative to the untreated control; for pest or weed control at 280 g/ha: 280 g ae/ha; for pest or weed control at 560 g/ha: 560 g ae/ha
[6] = Volatility of compounds measured by thermogravimetric analysis (TGA); format: physicochemical
[7] = test system: weeds ABUTH, AMATA, AMBEL, CHEAL, ERICA; assay: Postemergence herbicide evaluation, overall average % weed control (ABUTH, AMATA, AMBEL, CHEAL, ERICA); format: in vivo; settings: post-emergence, read-out: Overall Ave % Weed Control; for pest or weed control at 280 g/ha: 280 g ae/ha; for pest or weed control at 560 g/ha: 560 g ae/ha

Compound	pest or weed control at 280 g/ha ([1]; 168 h, 7 DAA) [%]	pest or weed control at 560 g/ha ([1]; 168 h, 7 DAA) [%]	pest or weed control at 280 g/ha ([1]; 336 h, 14 DAA) [%]	pest or weed control at 560 g/ha ([1]; 336 h, 14 DAA) [%]	pest or weed control at 280 g/ha ([1]; 504 h, 21 DAA) [%]	pest or weed control at 560 g/ha ([1]; 504 h, 21 DAA) [%]	pest or weed control at 280 g/ha ([2]; 168 h, 7 DAA) [%]	pest or weed control at 560 g/ha ([2]; 168 h, 7 DAA) [%]	pest or weed control at 280 g/ha ([2]; 336 h, 14 DAA) [%]	pest or weed control at 560 g/ha ([2]; 336 h, 14 DAA) [%]	pest or weed control at 280 g/ha ([2]; 504 h, 21 DAA) [%]	pest or weed control at 560 g/ha ([2]; 504 h, 21 DAA) [%]	pest or weed control at 280 g/ha ([3]; 168 h, 7 DAA) [%]	pest or weed control at 560 g/ha ([3]; 168 h, 7 DAA) [%]	pest or weed control at 280 g/ha ([3]; 336 h, 14 DAA) [%]	pest or weed control at 560 g/ha ([3]; 336 h, 14 DAA) [%]	pest or weed control at 280 g/ha ([3]; 504 h, 21 DAA) [%]	pest or weed control at 560 g/ha ([3]; 504 h, 21 DAA) [%]	pest or weed control at 280 g/ha ([4]; 168 h, 7 DAA) [%]	pest or weed control at 560 g/ha ([4]; 168 h, 7 DAA) [%]	also measured
O=C(COc1ccc(Cl)cc1Cl)O/N=C/c1cccnc1 [Compound A29]	70	91	90	97	72.5	100	77.5	77.5	75	100	100	100	50	70	67.5	82.5	77.5	97.5	82.5	77.5	pest or weed control at 280 g/ha ([4]; 336 h, 14 DAA): 96.5%; pest or weed control at 560 g/ha ([4]; 336 h, 14 DAA): 95%; pest or weed control at 280 g/ha ([4]; 504 h, 21 DAA): 91.5%; pest or weed control at 560 g/ha ([4]; 504 h, 21 DAA): 97.5%; pest or weed control at 280 g/ha ([5]; 168 h, 7 DAA): 77.5%; pest or weed control at 560 g/ha ([5]; 168 h, 7 DAA): 82.5%; pest or weed control at 280 g/ha ([5]; 336 h, 14 DAA): 100%; pest or weed control at 560 g/ha ([5]; 336 h, 14 DAA): 99%; pest or weed control at 280 g/ha ([5]; 504 h, 21 DAA): 99%; pest or weed control at 560 g/ha ([5]; 504 h, 21 DAA): 96.5%; TGA Data (rate of weight loss, volatility) [6]: 0.38 µg/min; pest or weed control at 280 g/ha ([7]; 168 h, 7 DAA): 71.5%; pest or weed control at 560 g/ha ([7]; 168 h, 7 DAA): 79.7%; pest or weed control at 280 g/ha ([7]; 336 h, 14 DAA): 85.8%; pest or weed control at 560 g/ha ([7]; 336 h, 14 DAA): 94.7%; pest or weed control at 280 g/ha ([7]; 504 h, 21 DAA): 88.1%; pest or weed control at 560 g/ha ([7]; 504 h, 21 DAA): 98.3%
C/C(=N\OC(=O)COc1ccc(Cl)cc1Cl)c1ccccc1 [Compound A1, Acetophenone O-(2-(2,4-dichlorophenoxy)acetyl) oxime]	73	78	85	87	80	82	65	80	88	97	95	100	83	85	96	97	97	100	70	70	pest or weed control at 280 g/ha ([4]; 336 h, 14 DAA): 78%; pest or weed control at 560 g/ha ([4]; 336 h, 14 DAA): 89%; pest or weed control at 280 g/ha ([4]; 504 h, 21 DAA): 83%; pest or weed control at 560 g/ha ([4]; 504 h, 21 DAA): 98%; pest or weed control at 280 g/ha ([5]; 168 h, 7 DAA): 73%; pest or weed control at 560 g/ha ([5]; 168 h, 7 DAA): 73%; pest or weed control at 280 g/ha ([5]; 336 h, 14 DAA): 90%; pest or weed control at 560 g/ha ([5]; 336 h, 14 DAA): 90%; pest or weed control at 280 g/ha ([5]; 504 h, 21 DAA): 93%; pest or weed control at 560 g/ha ([5]; 504 h, 21 DAA): 98%; TGA Data (rate of weight loss, volatility) [6]: 0.5 µg/min; pest or weed control at 280 g/ha ([7]; 168 h, 7 DAA): 73%; pest or weed control at 560 g/ha ([7]; 168 h, 7 DAA): 77%; pest or weed control at 280 g/ha ([7]; 336 h, 14 DAA): 87%; pest or weed control at 560 g/ha ([7]; 336 h, 14 DAA): 92%; pest or weed control at 280 g/ha ([7]; 504 h, 21 DAA): 89%; pest or weed control at 560 g/ha ([7]; 504 h, 21 DAA): 95%
O=C(COc1ccc(Cl)cc1Cl)Nc1nccs1 [Compound D24]	80	85	87.5	85	77.5	92.5	77.5	67.5	80	92.5	100	100	40	47.5	55	65	70	70	82.5	75	pest or weed control at 280 g/ha ([4]; 336 h, 14 DAA): 90%; pest or weed control at 560 g/ha ([4]; 336 h, 14 DAA): 92.5%; pest or weed control at 280 g/ha ([4]; 504 h, 21 DAA): 90%; pest or weed control at 560 g/ha ([4]; 504 h, 21 DAA): 95%; pest or weed control at 280 g/ha ([5]; 168 h, 7 DAA): 70%; pest or weed control at 560 g/ha ([5]; 168 h, 7 DAA): 75%; pest or weed control at 280 g/ha ([5]; 336 h, 14 DAA): 95%; pest or weed control at 560 g/ha ([5]; 336 h, 14 DAA): 87.5%; pest or weed control at 280 g/ha ([5]; 504 h, 21 DAA): 97.5%; pest or weed control at 560 g/ha ([5]; 504 h, 21 DAA): 99.5%; TGA Data (rate of weight loss, volatility) [6]: 0.08298 µg/min; pest or weed control at 280 g/ha ([7]; 168 h, 7 DAA): 70%; pest or weed control at 560 g/ha ([7]; 168 h, 7 DAA): 70%; pest or weed control at 280 g/ha ([7]; 336 h, 14 DAA): 81.5%; pest or weed control at 560 g/ha ([7]; 336 h, 14 DAA): 84.5%; pest or weed control at 280 g/ha ([7]; 504 h, 21 DAA): 87%; pest or weed control at 560 g/ha ([7]; 504 h, 21 DAA): 91.4%
